This passage reports IC50 results from patent US8822505B2, “Azetidine derivatives” (Hoffmann-La Roche Inc., priority 2012, dated 2014).

Molecules are shown by their SMILES. Where a name gives a salt, the structure may show the parent alone.

Broadly, the IC50 is the concentration that gives 50% inhibition.

The target of one experiment is human Cat L (Homo sapiens (Human), UniProt P07711). The experiment can be described thus: Cathepsin enzyme inhibition assay (human Cat L). Particulars: enzyme 1 nM, substrate Z-Val-Val-Arg-AMC 20 μM. The experiment is classed as biochemical. The method, then: (§1) Cathepsin Enzyme Inhibition Assay
(§2) Enzyme activity is measured by observing the increase in fluorescence intensity caused by cleavage of a peptide substrate containing a fluorophore whose emission is quenched in the intact peptide.
(§3) Assay buffer: 100 mM potassium phosphate pH 6.5, EDTA-Na 5 mM, Triton X-100 0.001%, DTT 5 mM.
(§4) Enzymes (all at 1 nM): human and mouse Cathepsin S, Cat K, Cat B, Cat L.
(§5) Substrate (20 μM): Z-Val-Val-Arg-AMC, except for Cat K which uses Z-Leu-Arg-AMC (both from Bachem).
Excitation 360 nm, Emission 465 nm.
Enzyme is added to the substance dilutions in 96-well microtitre plates and the reaction is started with substrate. Fluorescence emission is measured over 20 minutes, during which time a linear increase is observed in the absence of inhibitor. IC50 are calculated by standard methods.
Inhibition of human Cat S, mouse Cat S, human Cat K, human Cat B, human Cat L and mouse Cat L have been measured separately. The results obtained for human Cat S and L for representative compounds of the invention are expressed in the following table in μM.

Another experiment deals with human Cat S (Homo sapiens (Human), UniProt P25774). The experiment can be described thus: Cathepsin enzyme inhibition assay (human Cat S). As to conditions: enzyme 1 nM, substrate Z-Val-Val-Arg-AMC 20 μM. The format is biochemical. The method, then:
as §1, §2, §3, §4, §5
Enzyme is added to the substance dilutions in 96-well microtitre plates and the reaction is started with substrate. […] IC50 are calculated by standard methods.
Inhibition of human Cat S, mouse Cat S, human Cat K, human Cat B, human Cat L and mouse Cat L have been measured separately.

Sequence of human Cat L (P07711 114-333): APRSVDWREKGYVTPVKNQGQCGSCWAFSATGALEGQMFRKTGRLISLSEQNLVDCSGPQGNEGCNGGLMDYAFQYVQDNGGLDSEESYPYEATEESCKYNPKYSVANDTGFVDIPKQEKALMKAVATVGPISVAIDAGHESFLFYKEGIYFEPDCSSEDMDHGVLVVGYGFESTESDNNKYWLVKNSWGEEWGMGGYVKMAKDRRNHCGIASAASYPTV
Sequence of human Cat S (P25774 115-331): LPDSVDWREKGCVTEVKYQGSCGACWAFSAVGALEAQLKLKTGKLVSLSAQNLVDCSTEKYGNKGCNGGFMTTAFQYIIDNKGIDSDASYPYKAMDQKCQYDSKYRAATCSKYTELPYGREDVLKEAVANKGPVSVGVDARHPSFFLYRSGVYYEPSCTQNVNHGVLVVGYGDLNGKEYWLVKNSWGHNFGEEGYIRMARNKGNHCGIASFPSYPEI

In the case of `N#CC1(NC(=O)[C@@H]2C[C@@H](S(=O)(=O)c3ccc(OCC(F)(F)F)cc3Cl)CN2C(=O)C2(c3ncc(Br)cc3F)CNC2)CC1` [Example 19, (2S,4R)-1-(3-(5-Bromo-3-fluoropyridin-2-yl)azetidine-3-carbonyl)-4-(2-chloro-4-(2,2,2-trifluoroethoxy)phenylsulfonyl)-N-(1-cyanocyclopropyl)pyrrolidine-2-carboxamide], the IC50 on human Cat L (pH 6.5) came to 33.8 nM; at human Cat S (pH 6.5), 1.67 nM.

Consider `N#CC1(NC(=O)[C@@H]2C[C@@H](S(=O)(=O)c3ccc(OCC(F)(F)F)cc3Cl)CN2C(=O)C2(c3ncc(Cl)cc3F)CNC2)CC1` [Example 20, (2S,4R)-1-(3-(5-Chloro-3-fluoropyridin-2-yl)azetidine-3-carbonyl)-4-(2-chloro-4-(2,2,2-trifluoroethoxy)phenylsulfonyl)-N-(1-cyanocyclopropyl)pyrrolidine-2-carboxamide], for which the IC50 worked out at 78.2 nM on human Cat L (pH 6.5) and 2.92 nM against human Cat S (pH 6.5).

Take `CC(C)(C)OC(=O)N1CCC1(C(=O)N1C[C@H](S(=O)(=O)c2ccc(F)cc2Cl)C[C@H]1C(=O)NC1(C#N)CC1)c1ncc(Cl)cc1F` (stereo partly drawn) [Example 21, 2-[(2S,4R)-4-(2-Chloro-4-fluoro-benzenesulfonyl)-2-(1-cyano-cyclopropylcarbamoyl)-pyrrolidine-1-carbonyl]-2-(5-chloro-3-fluoro-pyridin-2-yl)-azetidine-1-carboxylic acid tert-butyl ester]: the IC50 turned out to be 1340 nM at human Cat L (pH 6.5) and 1.04 nM on human Cat S (pH 6.5).

As for `CC(C)(C)OC(=O)N1CCC1(C(=O)N1C[C@H](S(=O)(=O)c2ccc(F)cc2Cl)C[C@H]1C(=O)NC1(C#N)CC1)c1ncc(Br)cc1F` (stereo partly drawn) [Example 22, 2-(5-Bromo-3-fluoro-pyridin-2-yl)-2-[(2S,4R)-4-(2-chloro-4-fluoro-benzenesulfonyl)-2-(1-cyano-cyclopropylcarbamoyl)-pyrrolidine-1-carbonyl]-azetidine-1-carboxylic acid tert-butyl ester], the IC50 on human Cat L (pH 6.5) was 1020 nM; against human Cat S (pH 6.5) it was 1.26 nM.

Turning to `CC(C)(C)OC(=O)N1CCC1(C(=O)N1C[C@H](S(=O)(=O)c2ccc(F)cc2Cl)C[C@H]1C(=O)NC1(C#N)CC1)c1ncc(Cl)cc1F` (stereo partly drawn) [Example 23, 2-[(2S,4R)-4-(2-Chloro-4-fluoro-benzenesulfonyl)-2-(1-cyano-cyclopropylcarbamoyl)-pyrrolidine-1-carbonyl]-2-(5-chloro-3-fluoro-pyridin-2-yl)-azetidine-1-carboxylic acid tert-butyl ester], the IC50 is 2010 nM on human Cat L (pH 6.5) and 0.377 nM on human Cat S (pH 6.5).

Turning to `CC(C)(C)OC(=O)N1CCC1(C(=O)N1C[C@H](S(=O)(=O)c2ccc(F)cc2Cl)C[C@H]1C(=O)NC1(C#N)CC1)c1ncc(Cl)cc1F` (stereo partly drawn) [Example 24, 2-[(2S,4R)-4-(2-Chloro-4-fluoro-benzenesulfonyl)-2-(1-cyano-cyclopropylcarbamoyl)-pyrrolidine-1-carbonyl]-2-(5-chloro-3-fluoro-pyridin-2-yl)-azetidine-1-carboxylic acid tert-butyl ester], the concentration for half-maximal inhibition (IC50) against human Cat L (pH 6.5) was 922 nM; against human Cat S (pH 6.5), 4.56 nM.

Regarding `CC(C)(C)OC(=O)N1CCC1(C(=O)N1C[C@H](S(=O)(=O)c2ccc(F)cc2Cl)C[C@H]1C(=O)NC1(C#N)CC1)c1ncc(Br)cc1F` (stereo partly drawn) [Example 25, 2-(5-Bromo-3-fluoro-pyridin-2-yl)-2-[(2S,4R)-4-(2-chloro-4-fluoro-benzenesulfonyl)-2-(1-cyano-cyclopropylcarbamoyl)-pyrrolidine-1-carbonyl]-azetidine-1-carboxylic acid tert-butyl ester], the half-inhibitory concentration (IC50) at human Cat L (pH 6.5) turned out to be 2910 nM; against human Cat S (pH 6.5) it was 0.492 nM.

In the case of `CC(C)(C)OC(=O)N1CCC1(C(=O)N1C[C@H](S(=O)(=O)c2ccc(F)cc2Cl)C[C@H]1C(=O)NC1(C#N)CC1)c1ncc(Br)cc1F` (stereo partly drawn) [Example 26, 2-(5-Bromo-3-fluoro-pyridin-2-yl)-2-[(2S,4R)-4-(2-chloro-4-fluoro-benzenesulfonyl)-2-(1-cyano-cyclopropylcarbamoyl)-pyrrolidine-1-carbonyl]-azetidine-1-carboxylic acid tert-butyl ester], the IC50 was 471 nM on human Cat L (pH 6.5) and 4.45 nM against human Cat S (pH 6.5).

Regarding `C[C@H](Oc1ccc(S(=O)(=O)[C@@H]2C[C@@H](C(=O)NC3(C#N)CC3)N(C(=O)C3(c4ncc(Br)cc4F)CCN3C(=O)OC(C)(C)C)C2)c(Cl)c1)C(F)(F)F` (stereo partly drawn) [Example 30, 2-(5-Bromo-3-fluoro-pyridin-2-yl)-2-[(2S,4R)-4-[2-chloro-4-((S)-2,2,2-trifluoro-1-methyl-ethoxy)-benzenesulfonyl]-2-(1-cyano-cyclopropylcarbamoyl)-pyrrolidine-1-carbonyl]-azetidine-1-carboxylic acid tert-butyl ester], the IC50 at human Cat L (pH 6.5) was 1060 nM; on human Cat S (pH 6.5), 2.22 nM.

For the compound `N#CC1(NC(=O)[C@@H]2C[C@@H](S(=O)(=O)c3ccc(F)cc3Cl)CN2C(=O)C2(c3ncc(Cl)cc3F)CCN2)CC1` (stereo partly drawn) [Example 31, (2S,4R)-4-(2-Chloro-4-fluoro-benzenesulfonyl)-1-[2-(5-chloro-3-fluoro-pyridin-2-yl)-azetidine-2-carbonyl]-pyrrolidine-2-carboxylic acid (1-cyano-cyclopropyl)-amide; hydrochloride], the half-maximal inhibitory concentration (IC50) against human Cat L (pH 6.5, hydrochloride) is 81.6 nM; against human Cat S (pH 6.5, hydrochloride), 1.57 nM.

In the case of `C[C@H](Oc1ccc(S(=O)(=O)[C@@H]2C[C@@H](C(=O)NC3(C#N)CC3)N(C(=O)C3(c4ncc(Br)cc4F)CN(C(=O)OC(C)(C)C)C3)C2)c(Cl)c1)C(F)(F)F` [Example 33, 3-(5-Bromo-3-fluoro-pyridin-2-yl)-3-[(2S,4R)-4-[2-chloro-4-((S)-2,2,2-trifluoro-1-methyl-ethoxy)-benzenesulfonyl]-2-(1-cyano-cyclopropylcarbamoyl)-pyrrolidine-1-carbonyl]-azetidine-1-carboxylic acid tert-butyl ester], the half-maximal inhibitory concentration (IC50) against human Cat L (pH 6.5) came to 89.5 nM; against human Cat S (pH 6.5), 3.54 nM.

Regarding `C[C@H](Oc1ccc(S(=O)(=O)[C@@H]2C[C@@H](C(=O)NC3(C#N)CC3)N(C(=O)C3(c4ncc(Br)cc4F)CNC3)C2)c(Cl)c1)C(F)(F)F` [Example 34, (2S,4R)-1-[3-(5-Bromo-3-fluoro-pyridin-2-yl)-azetidine-3-carbonyl]-4-[2-chloro-4-((S)-2,2,2-trifluoro-1-methyl-ethoxy)-benzenesulfonyl]-pyrrolidine-2-carboxylic acid (1-cyano-cyclopropyl)-amide], the values for the 50% inhibitory concentration (IC50) against human Cat L (pH 6.5) and on human Cat S (pH 6.5) were 14.2 nM and 3.48 nM, respectively.

For `N#CC1(NC(=O)[C@@H]2C[C@@H](S(=O)(=O)c3ccc(F)cc3Cl)CN2C(=O)C2(c3ncc(Cl)cc3F)CCN2)CC1` (stereo partly drawn) [Example 35, (2S,4R)-4-(2-Chloro-4-fluoro-benzenesulfonyl)-1-[2-(5-chloro-3-fluoro-pyridin-2-yl)-azetidine-2-carbonyl]-pyrrolidine-2-carboxylic acid (1-cyano-cyclopropyl)-amide hydrochloride], the half-inhibitory concentration (IC50) against human Cat L (pH 6.5, hydrochloride) turned out to be 1440 nM; at human Cat S (pH 6.5, hydrochloride), 1.3 nM.

In the case of `N#CC1(NC(=O)[C@@H]2C[C@@H](S(=O)(=O)c3ccc(F)cc3Cl)CN2C(=O)C2(c3ncc(Br)cc3F)CCN2)CC1` (stereo partly drawn) [Example 36, (2S,4R)-1-[2-(5-Bromo-3-fluoro-pyridin-2-yl)-azetidine-2-carbonyl]-4-(2-chloro-4-fluoro-benzenesulfonyl)-pyrrolidine-2-carboxylic acid (1-cyano-cyclopropyl)-amide hydrochloride], the results for the IC50 against human Cat L (pH 6.5) and against human Cat S (pH 6.5) were 621 nM and 1.42 nM, respectively.
